The text below walks through data of patent US9259438B2, “Methods for in vitro maturation of ovarian follicles” (priority 2008, dated 2016).

Assay [1] relates to primordial follicles in cultured mouse ovaries. Kind of assay: Culture of postnatal day 4 mouse ovaries with PTEN inhibitor, morphological analysis. It is filed as cell-based. As to conditions: postnatal day 4 mouse ovaries cultured for 8 days, 10 μM inhibitor vs. carrier. The procedure:
Postnatal day 4 mouse ovaries containing primordial follicles were cultured for 8 days with carrier (A) or PTEN inhibitor bpv (Hopic) (B).
Postnatal day 4 mouse ovaries were removed aseptically and the whole ovary was cultured in a Cell Strainer (40 μm pore size) (BD Biosciences, Stockholm, Sweden) in 1 ml alpha-MEM medium (Gibco-BRL) supplemented with 28 mM ascorbic acid and 0.3% (w/v) BSA, with or without 10 μM of the PTEN inhibitor bpV-HOpic (Dipotassium Bisperoxo(5-hydroxypyridine-2-carboxyl)oxovanadate (V), K2[VO(O2)2C6H4NO3]). The cultured ovaries were incubated in a humidified incubator (5% CO2, 37° C.) with one-third of the medium exchanged for fresh medium every day for the duration of the culture period. For fixation, the ovaries were washed once in PBS and fixed overnight in 4% paraformaldehyde, and embedded for morphological analysis.

Assay [2] has as its system Akt. Description: Western blot of Akt activation (p-Akt, serine 473) in oocytes after Kit ligand treatment. It counts as cell-based, mouse. As to conditions: 100 ng/ml, 2 min; PD12-14 Pten loxP/loxP; GCre+ oocytes vs. control oocytes. The protocol: Oocytes were isolated from ovaries of Pten^loxP/loxP; GCre+ and Pten^loxP/loxP mice at PD5 and PD12-14, and western blots were performed (A) Levels of p-Akt (serine 473) and total Akt in PD12-14 Pten^loxP/loxP; GCre+ and Pten^loxP/loxP oocytes. (B) Activation of Akt (p-Akt, serine 473) by Kit ligand (KL) treatment (100 ng/ml, 2 min) in PD12-14 Pten^loxP/loxP; GCre+ and Pten^loxP/loxP oocytes. Levels of Akt were used as internal controls. (C) Signaling studies in Pten^loxP/loxP; GCre+ and Pten^loxP/loxP oocytes at PD5 and PD12-14, showing levels of p-Akt (serine 473), rpS6, p-rpS6 (serine 235/6), p-mTOR (serine 2448), p-TSC2 (threonine 1462), and p-S6K (threonine 389). Levels of total Akt, mTOR, TSC2, S6K, and β-actin were used as internal controls. All experiments were repeated at least 3 times. For isolation of PD5 oocytes for western blot, 10-15 Pten^loxP/loxP; GCre+ or Pten^loxP/loxP mice were used for each lane. For isolation of PD12-14 oocytes, 3-5 Pten^loxP/loxP^P; GCre+ mice or 6-10 Pten^loxP/loxP mice were used per lane. In each lane, 30-40 μg of protein sample was loaded.
Thus, activation of the pool of primordial follicles ends up with follicle depletion. This causes POF (premature ovarian failure) in Pten^loxP/loxP; GCr+ mice. The phenotype observed in these mice resembles that of human POF (Beck-Peccoz and Persani, Orphanet. J. Rare. Dis. 2006, 1: 9). […]
On the technique in general: A western blot detects proteins with antibodies after separation by electrophoresis.

Regarding “Dipotassium Bisperoxo(5-hydroxypyridine-2-carboxyl)oxovanadate (V) [bpV-HOpic]”, in assay [1], the “proliferation and differentiation of flattened pre-granulosa cells into cuboidal granulosa cells” value was “stimulates the proliferation and differentiation of flattened pre-granulosa cells”; the “survival rate of follicles in the cultured ovaries” value was “enhances the survival rate of follicles”.

B1: Kit ligand (KL): Kit ligand, activates the PI3K pathway in growing oocytes through its oocyte surface receptor Kit (protein, UniProt P20826 26-190, looked up)
Soluble KIT ligand: KEICGNPVTDNVKDITKLVANLPNDYMITLNYVAGMDVLPSHCWLRDMVIQLSLSLTTLLDKFSNISEGLSNYSIIDKLGKIVDDLVLCMEENAPKNIKESPKRPETRSFTPEEFFSIFNRSIDAFKDFMVASDTSDCVLSSTLGPEKDSRVSVTKPFMLPPVAA
Turning to B1, in assay [2], the “activation of Akt (p-Akt, serine 473)” value is “activated Akt to a greater extent”.
